This note sets out measurements from paper PMC11946258, “Self-Assembly, Antimicrobial Properties and Biodegradability of Ester-Functionalized Choline-Based Surface-Active Ionic Liquids” (Molecules, 2025).

Data set [1] in a line: Critical micelle concentration by conductivity. In kind it is physicochemical. The following applies: aqueous solution, 25 °C. From the text: The change in specific conductivity of ester-functionalized choline-based ILs as a function of their concentration was investigated. […] Conductometric plots of the other homologues are presented in the Supplemetary Materials (Figures S10 and S11).
In the pre- and postmicellization zones, the specific conductivity values are represented by two straight lines with different slopes. As a consequence of the micelle’s reduced mobility in comparison to the monomers and the binding of certain counterions to it, a pronounced change in slope is observed. The critical micelle concentration (CMC) value was calculated from the point of inflection in the curve. […] In accordance with the empirical Stauff–Klevens Equation (1), a linear relationship is observed between log CMC and alkyl chain length:log cmc = A − B × n(1)
Conductivity measurements were carried out at 25 °C using an Orion conductivity cell 913005MD with an epoxy/graphite electrode and a Thermo Orion 5 Star multiparameter instrument with a cell constant of 0.475 cm^−1.

The subject of another data set is MRSA. Put plainly: MIC broth microdilution. The following applies: Staphylococcus aureus, ATCC 43300 / MRSA; MRSA ATCC 43300, 24 h, 37 °C. In kind it is cell-based, methicillin-resistant Staphylococcus aureus. Here is the method: (§1) The antimicrobial activity of cholinium-based ILs with an ester group in the alkyl chain was evaluated against a range of representative bacteria and fungi.
Antibacterial assays were performed against the following microorganisms: Bacillus subtilis ATCC 6633, Staphylococcus epidermidis ATCC 12228, Staphylococcus aureus ATCC 29213, Micrococcus luteus ATCC10240, Listeria monocytogenes ATCC 15313, methicillin-resistant Staphylococcus aureus ATCC 43300, Escherichia coli ATCC 8739, Acinetobacter baumannii ATCC 19606, Klebsiella aerogenes ATCC 13048, Pseudomonas aeruginosa 9027, and Salmonella enterica ATCC14208. The antibacterial activity was assessed in vitro using the minimum inhibitory concentration (MIC) method. MIC is defined as the lowest concentration of an antimicrobial agent that prevents visible bacterial growth after 24 h of incubation at 37 °C. The ionic liquids were dissolved in Mueller–Hinton broth (MBH) at concentrations ranging from 1 to 256 μg/mL. The broth was added (200 μL) to appropriate wells of a 96-well polystyrene microtitre plate. Then, 10 μL of a nutrient broth starter culture of each bacterial strain was added to achieve final inocula of approximately […] colony forming units (CFU)/mL. A growth control using nutrient broth medium without the ionic liquid was included. The plates were incubated 37 °C for 24 h. Bacterial growth was initially observed visually, with increased turbidity indicating cell growth. […] A color change of resazurine from blue to pink indicated bacterial metabolic activity. All the experiments were performed in triplicate to ensure reproducibility.
(In general: Dilution methods test growth across graded concentrations, often in twofold steps.)

A further data set concerns Candida albicans. As to the kind of experiment: Antifungal MIC broth microdilution. Format: cell-based. Particulars: ATCC90028; Candida albicans ATCC 90028, RPMI 1640, 24 h, 30 °C. On the procedure: as §1
(§2) The antifungal activity was evaluated against the following yeasts: Candida albicans ATCC 90028, Candida tropicalis ATCC 7349, Candida parapsilosis ATCC 22019, Candida glabrata ATCC 66032. Frozen yeast stocks were inoculated into Sabourauds’s agar (SBA) and culture plates and incubated at 35 °C for 24 h. Three to four colonies of each strain were dispersed in sterile medium, Roswell Park Memorial Institute medium (RPMI 1640 medium), to obtain dispersions with a turbidity equivalent to 0.5 on the MacFarland scale (McFarland DEN-1B Grant-bio model densitometer). Minimum fungicidal concentrations (MFC) values—the lowest concentration of an antimicrobial agent that prevents the establishment of visible microbial growth after 24 h at 30 °C—were used to determine in vitro antifungal activity. MFCs were determined using a broth microdilution assay. Serial dilutions of each IL, ranging from 512 to 2 µg/mL, were dissolved in RPMI 1640 medium and dispensed (100 µL) into the appropriate wells of a 96-well polystyrene microtiter plate. The nutrient broth starter culture of each yeast strain (100 μL) was added to achieve a final inoculum of approximately 7.5 × 10^5 CFU per mL for yeast. Nutrient broth medium without the compound was used as a growth control. The development of turbidity in an inoculated medium is a function of growth and reflects an increase in both mass and cell number. To confirm this observation, 20 μL of resazurin at 0.015% w/v was added to each well and allowed to react for approximately 2 h at 30 °C. After the incubation period, the indicator of microbial growth, i.e., a change from blue to pink, confirmed the MIC value.

Another data set relates to Candida glabrata. As to the kind of experiment: Antifungal MIC broth microdilution. Particulars: Nakaseomyces glabratus, ATCC66032; Candida glabrata ATCC 66032, RPMI 1640, 24 h, 30 °C. Format: cell-based. On the procedure:
as §1, §2

The subject of the next data set is Candida parasilopsis. As to the kind of experiment: Antifungal MIC broth microdilution. Format: cell-based. Particulars: Candida parapsilosis ATCC 22019, RPMI 1640, 24 h, 30 °C. Here is the method: as §1, §2
In a further data set the test system is Candida tropicalis. As to the kind of experiment: Antifungal MIC broth microdilution. In kind it is cell-based. Particulars: ATCC7349; Candida tropicalis ATCC 7349, RPMI 1640, 24 h, 30 °C. Here is the method:
as §1, §2

A further data set deals with MRSA biofilms. As to the kind of experiment: MRSA mature biofilm eradication (crystal violet). In kind it is cell-based, methicillin-resistant Staphylococcus aureus. The following applies: CV staining, up to the highest tested concentration of 256 µg/mL. Here is the method: The capacity of the ester-functionalised cholinium-based ILs to eradicate established MRSA biofilms was evaluated through the performance of eradication assays on microtiter plates. CV staining was applied to measure biofilm biomass.
Antibiofilm activity was assessed against biofilm-forming strains of methicillin-resistant Staphylococcus aureus (MRSA) ATCC 43300 and Candida albicans ATCC 90028. The biofilm inhibition and eradication capacities of ILs were evaluated against adherent bacterial biofilms grown in 96-well microtiter plates. Bacteria were grown on Tryptic soy agar at 37 °C for 24 h and the fungi on Sabouraud agar at 30 °C for 24 h. Bacteria were suspended in lysogeny broth containing glucose (1%) at 1.5 × 10^8 CFU/mL and yeasts were suspended in RPMI medium at 1.5 × 10^7 CFU/mL.
To evaluate the effect of ionic liquids on mature biofilms, we employed a modified microtiter plate assay. We first generated mature biofilms by incubating 200 μL of diluted bacterial suspension in each well of a 96-well plate for 24 h at 37 °C. After gently washing the biofilms with PBS, we added 200 μL of ionic liquid solution at various concentrations (4–256 μg/mL, using two-fold serial dilutions) to each well and incubated for an additional 24 h at 37 °C. Following treatment, we fixed the biofilms with 150 μL methanol for 10 min. The subsequent crystal violet (CV) staining and quantification steps were performed as described in the previous biofilm formation assay (Section 3.6.1), allowing us to assess the impact of ionic liquids on established biofilms.

As usually defined, the MIC is the lowest concentration found to suppress growth. Read a low MIC as inhibition by little substance. The molecule `CCCCCCCCCCCCOC(=O)C[N+](C)(C)CCO` [C12ECholBr] gave a CMC in data set [1] of 4.2 ± 0.5 mM. In addition, the MIC is 64 µg/mL in the data set with MRSA; 64 µg/mL in the data set with Candida albicans; 32 µg/mL against Candida glabrata; more than 256 µg/mL in the data set on Candida parasilopsis; more than 256 µg/mL against Candida tropicalis. Besides, the biofilm biomass removal in the data set with MRSA biofilms is not above 60%.
On to `CCCCCCCCCCCCCCOC(=O)C[N+](C)(C)CCO.[Br-]` [C14ECholBr, N-(2-hydroxyethyl)-N,N-dimethyl-2-oxo-2-(tetradecyloxy)ethan-1-aminium bromide], for which the CMC in data set [1] is on record as 0.7 ± 0.1 mM. Further, the MIC against MRSA, against Candida albicans, against Candida glabrata, in the data set on Candida parasilopsis and in the data set with Candida tropicalis was more than 256 µg/mL in each case. The biofilm biomass removal with MRSA biofilms is not above 60%.
`CCCCCCCCCCOC(=O)C[N+](C)(C)CCO` [C10ECholBr] gave a CMC in data set [1] of 11.2 ± 0.8 mM. Besides, the MIC in the data set on MRSA, against Candida albicans, in the data set with Candida glabrata, against Candida parasilopsis and in the data set with Candida tropicalis was more than 256 µg/mL throughout. For the same molecule, the biofilm biomass removal entry in the data set on MRSA biofilms was “less than 20%”.
